Assay results: patent US4066772A, “1,3-Dihydro-1-[3-(1-piperidinyl)propyl]-2H-benzimidazol-2-ones and related compounds” (Janssen Pharmaceutica N.V., priority 1976, dated 1978)

system: apomorphine-induced vomiting in dogs; assay: Apomorphine-induced vomiting test in dogs (antiemetic activity, subcutaneous); assay type: in vivo, beagle dogs; settings: Canis lupus familiaris, sc, 1 h, read-out: ED50 (dose which protects 50% of the animals from emesis), Table I

| Structure (SMILES) | ED50 [mg/kg] |
| --- | --- |
| O=C1NCN(c2ccccc2)C12CCN(CCCn1c(=O)[nH]c3ccccc31)CC2 [L=H, R1=H, R4=H, R5=H, 8-[3-(1,3-dihydro-2-oxo-2H-benzimidazol-1-yl)propyl]-1-phenyl-1,3,8-triazaspiro[4,5]decan-4-one] | 0.03 |
| CN1CN(c2ccccc2)C2(CCN(CCCn3c(=O)[nH]c4ccccc43)CC2)C1=O [L=H, R1=H, R4=CH3, R5=H, 8-[3-(1,3-dihydro-2-oxo-2H-benzimidazol-1-yl)propyl]-3-methyl-1-phenyl-1,3,8-triazaspiro[4,5]decan-4-one] | 0.015 |
| C=CCn1c(=O)n(CCCN2CCC3(CC2)C(=O)NCN3c2ccccc2)c2ccccc21 [L=CH2CHCH2, R1=H, R4=H, R5=H, 8-{3-[1,3-dihydro-2-oxo-3-(2-propenyl)-2H-benzimidazol-1-yl]propyl}-1-phenyl-1,3,8-triazaspiro[4,5]decan-4-one] | 0.25 |
| O=C1NCN(c2ccc(F)cc2)C12CCN(CCCn1c(=O)[nH]c3cc(Cl)ccc31)CC2 [L=H, R1=5-Cl, R4=H, R5=4-F, 8-[3-(5-chloro-1,3-dihydro-2-oxo-2H-benzimidazol-1-yl)propyl]-1-(4-fluorophenyl)-1,3,8-triazaspiro[4,5]decan-4-one] | 0.015 |
| Cn1c(=O)n(CCCN2CCC3(CC2)C(=O)NCN3c2ccccc2)c2ccccc21 [L=CH3, R1=H, R4=H, R5=H, 8-[3-(1,3-dihydro-3-methyl-2-oxo-2H-benzimidazol-1-yl)propyl]-1-phenyl-1,3,8-triazaspiro[4,5]-decan-4-one] | 0.08 |
| O=C1NCN(c2ccccc2)C12CCN(CCCn1c(=O)[nH]c3cc(Cl)ccc31)CC2 [L=H, R1=5-Cl, R4=H, R5=H, 8-[3-(5-chloro-1,3-dihydro-2-oxo-2H-benzimidazol-1-yl)propyl]-1-phenyl-1,3,8-triazaspiro[4,5]decan-4-one] | 0.05 |
| O=C1NCN(c2cccc(C(F)(F)F)c2)C12CCN(CCCn1c(=O)[nH]c3ccccc31)CC2 [L=H, R1=H, R4=H, R5=3-CF3, 8-[3-(2,3-dihydro-2-oxo-1H-benzimidazol-1-yl)propyl]-1-[3-(trifluoromethyl)phenyl]-1,3,8-triazaspiro[4,5]decan-4-one] | 0.025 |
| Cc1ccc2c(c1)[nH]c(=O)n2CCCN1CCC2(CC1)C(=O)NCN2c1ccccc1 [L=H, R1=5-CH3, R4=H, R5=H, 8-[3-(1,3-dihydro-5-methyl-2-oxo-2H-benzimidazol-1-yl)propyl]-1-phenyl-1,3,8-triazaspiro[4,5]decan-4-one] | 0.06 |
| O=C1NCN(c2ccc(F)cc2)C12CCN(CCCn1c(=O)[nH]c3ccccc31)CC2 [L=H, R1=H, R4=H, R5=4-F] | 0.04 |

same assay, conditions: Canis lupus familiaris, sc, 1 h, read-out: ED50 (dose which protects 50% of the animals from emesis), Table II

| Structure (SMILES) | ED50 [mg/kg] |
| --- | --- |
| O=c1[nH]c2ccccc2n1CCCN1CCC(n2c(=O)[nH]c3cc(Cl)ccc32)CC1 [5-chloro-1-{1-[3-(1,3-dihydro-2-oxo-2H-benzimidazol-1-yl)propyl]-4-piperidinyl}-1,3-dihydro-2H-benzimidazol-2-one] | 0.01 |

same assay, conditions: Canis lupus familiaris, sc, 1 h, read-out: ED50 (dose which protects 50% of the animals from emesis), Table III

| Structure (SMILES) | ED50 [mg/kg] |
| --- | --- |
| O=c1[nH]c2ccccc2n1CCCN1CCC(O)(c2ccc(Cl)c(C(F)(F)F)c2)CC1 [L=H, R8=4-Cl, R9=3-CF3, 1-[3-{4-[4-chloro-3-(trifluoromethyl)phenyl]-4-hydroxy-1-piperidinyl}propyl]-1,3-dihydro-2H-benzimidazol-2-one] | 0.015 |
| O=c1[nH]c2ccccc2n1CCCN1CCC(O)(c2ccc(Cl)cc2)CC1 [L=H, R8=4-Cl, R9=H, 1-{3-[4-(4-chlorophenyl)-4-hydroxy-1-piperidinyl]-propyl}-1,3-dihydro-2H-benzimidazol-2-one] | 0.06 |
| C=CCn1c(=O)n(CCCN2CCC(O)(c3ccc(Cl)cc3)CC2)c2ccccc21 [L=CH2CHCH2, R8=4-Cl, R9=H, 1-{3-[4-(4-chlorophenyl) 4-hydroxy-1-piperidinyl]propyl}-1,3-dihydro-3-(2-propenyl)-2-H-benzimidazol-2-one] | 0.5 |

same assay, conditions: Canis lupus familiaris, sc, 1 h, read-out: ED50 (dose which protects 50% of the animals from emesis), Table IV

| Structure (SMILES) | ED50 [mg/kg] |
| --- | --- |
| O=C1NCN(c2ccccc2)C12CCN(CCCn1cnc3ccccc31)CC2 | 0.25 |

same assay, conditions: Canis lupus familiaris, sc, beagle dogs, apomorphine 0.31 mg/kg s.c. 1 hour after compound; read-out: ED50 (dose which protects 50% of the animals from emesis), Table II

| Structure (SMILES) | ED50 [mg/kg] |
| --- | --- |
| O=c1[nH]c2ccccc2n1CCCN1CC=C(n2c(=O)[nH]c3ccccc32)CC1 [L=H, R1=H, R2=H, R3=H, ring drawing 47, R7=H, 1-{3-[3,6-dihydro-4-(1,3-dihydro-2-oxo-2H-benzimidazol-1-yl)-1-(2H)-pyridinyl]propyl}-1,3-dihydro-2H-benzimidazol-2-one] | 0.04 |

same assay, conditions: Canis lupus familiaris, sc, beagle dogs, apomorphine 0.31 mg/kg s.c. 1 hour after compound; read-out: ED50 (dose which protects 50% of the animals from emesis), Table IV

| Structure (SMILES) | ED50 [mg/kg] |
| --- | --- |
| O=c1[nH]c2cc(Cl)ccc2n1C1CCN(CCCn2c(=S)[nH]c3ccccc32)CC1 | 0.004 |
| O=c1[nH]c2ccccc2n1CCCN1CCC(n2c(=S)[nH]c3ccccc32)CC1 | 0.025 |
| O=c1[nH]c2ccccc2n1CCCN1CCC(n2c(=S)[nH]c3cc(Cl)ccc32)CC1 | 0.004 |
